The test system of the first experiment is 661W or C6 cells. In words: MTT assay, protection against calcium-ionophore A23187. Type of experiment: cell-based. Particulars: 1 μM ionophore, 24 h. The method, then:
The compound 3-(4,5-Dimethylthiazol-2-yl)-2,5-diphenyltetrazolium bromide (MTT) is a tetrazolium ion that is reduced to a blue formazan dye via several families of NAD(P)H-dependent oxidoreductases. Formation of the formazan dye from MTT or other related tetrazolium dyes are commonly used as a viability assay even though, in fact, the assay is a metabolic capacity assay.
In this assay, 661W or C6 cells were maintained in DMEM supplemented with 10% FBS. 100 μL of 70,000 cells/mL cells were seeded into each well of 96 well plates using DMEM supplemented with 5% FBS. Cells were then allowed to grow to confluency for 48 hours. The compounds of the invention were added in 2 μL media and calcium-ionophore A23187 was then added in 1 μL for a final concentration of 1 μM and after 24 h, 20 μL of […] MTT were added to each well and the cells were incubated for another 4 h after which 100 μL of 1% SDS in 0.01M aqueous HCl were added to each well and the plates were incubated overnight. Absorbance was measured at […] (background correction). The 1 μM ionophore A23187 caused about 50% loss in MTT signal at 24 h. Protection was calculated as the increase in absorbance of treatment groups normalized to the vehicle control.
Background: Formazan colour is commonly taken as a measure of viable cells.
As to `CNc1ccc2oc(C[C@H]3O[C@@]4(CC[C@H]3C)O[C@H]([C@H](C)C(=O)c3ccc[nH]3)[C@H](C)C[C@H]4C)nc2c1C(=O)O` [Example A23187, reference compound], the “loss in MTT signal” value is “about 50%”.

Staying with this experiment, now noted: compound 800 pM; 1 μM A23187, 24 h.
For `COc1ccc(O)c(CC2(OC(=O)c3ccccc3)C(=O)N(CC(C)C)c3ccccc32)c1` (stereo not drawn) [Example 54, 3-(2-hydroxy-5-methoxybenzyl)-1-isobutyl-2-oxoindolin-3-yl benzoate], the “MTT, % protection” value was 85.8%,.

Take `COc1cc(CC2(OC(=O)c3ccccc3)C(=O)N(CC(C)C)c3ccccc32)cc(OC)c1OC` (stereo not drawn) [Example 49, 1-isobutyl-2-oxo-3-(3,4,5-trimethoxybenzyl)indolin-3-yl benzoate]: the “MTT, % protection” value is given as 78.3%,.

`Cc1ccc2c(c1)C(O)(Cc1ccccn1)C(=O)N2CCc1ccccc1` (stereo not drawn) [Example 9, 3-hydroxy-5-methyl-1-phenethyl-3-(pyridin-2-ylmethyl)indolin-2-one]: the “MTT, % protection” value is recorded as 62.5%,.

`CCN1C(=O)C(Cc2ccc(OC)cc2O)(OC(=O)c2ccccc2)c2ccccc21` (stereo not drawn) [Example 57, 1-ethyl-3-(2-hydroxy-4-methoxybenzyl)-2-oxoindolin-3-yl benzoate]: the “MTT, % protection” value was 71%,.

Still in this experiment, the particulars now being: compound 1 nM; 1 μM A23187, 24 h.
On to `CCCN1C(=O)C(Cc2ccc(OC)c(OC)c2)(OC(=O)c2ccccc2)c2cc(C)ccc21` (stereo not drawn) [Example 47, 3-(3,4-dimethoxybenzyl)-5-methyl-2-oxo-1-propylindolin-3-yl benzoate], for which the “MTT, % protection” value is 21.8%,.

Regarding `CCN1C(=O)C(O)(Cc2ncccc2OC)c2cc(C)ccc21` (stereo not drawn) [Example 8, 1-ethyl-3-hydroxy-3-((3-methoxypyridin-2-yl)methyl)-5-methylindolin-2-one], the “MTT, % protection” value was 65.9%,.

Take `COc1ccc(CC2(OC(=O)c3ccccc3)C(=O)N(CCc3ccccc3)c3ccc(C)cc32)cc1OC` (stereo not drawn) [Example 44, 3-(3,4-dimethoxybenzyl)-5-methyl-2-oxo-1-phenethylindolin-3-yl benzoate]: the “MTT, % protection” value is 72%,.

On to `CCCN1C(=O)C(O)(Cc2ccc(OC)cn2)c2cc(Cl)ccc21` (stereo not drawn) [Example 5, 5-chloro-3-hydroxy-3-((5-methoxypyridin-2-yl)methyl)-1-propylindolin-2-one], for which the “MTT, % protection” value was 39.2%,.

For the molecule `CCN1C(=O)C(Cc2cc(OC)ccc2O)(OC(=O)c2ccccc2)c2cc(C)ccc21` (stereo not drawn) [Example 60, 1-ethyl-3-(2-hydroxy-5-methoxybenzyl)-5-methyl-2-oxoindolin-3-yl benzoate], the “MTT, % protection” value is reported as 68.7%,.

Regarding `CCN1C(=O)C(O)(Cc2ccccn2)c2cc(Cl)ccc21` (stereo not drawn) [Example 10, 5-chloro-1-ethyl-3-hydroxy-3-(pyridin-2-ylmethyl)indolin-2-one], the “MTT, % protection” value is listed as 52.7%,.

For the molecule `COc1cccc(CC2(OC(=O)c3ccccc3)C(=O)N(CCC(C)C)c3ccc(Cl)cc32)c1O` (stereo not drawn) [Example 55, 5-chloro-3-(2-hydroxy-3-methoxybenzyl)-1-isopentyl-2-oxoindolin-3-yl benzoate], the “MTT, % protection” value was 67.4%,.

Turning to `COc1ccc(CC2(OC(=O)c3ccccc3)C(=O)N(CCC(C)C)c3ccccc32)cc1OC` (stereo not drawn) [Example 45, 3-(3,4-dimethoxybenzyl)-1-isopentyl-2-oxoindolin-3-yl benzoate], the “MTT, % protection” value is recorded as 63%,.

The same experiment, now with this note: compound 100 nM; 1 μM A23187, 24 h.
Consider `COc1cccc(C(=O)CC2(O)C(=O)N(CC(C)C)c3ccc(Cl)cc32)n1` (stereo not drawn) [Example 17, 5-chloro-3-hydroxy-1-isobutyl-3-(2-(6-methoxypyridin-2-yl)-2-oxoethyl)indolin-2-one], for which the “MTT, % protection” value is listed as 111%,.

With `CCN1C(=O)C(O)(CC(=O)c2ccccn2)c2cc(Cl)ccc21` (stereo not drawn) [Example 19, 5-chloro-1-ethyl-3-hydroxy-3-(2-oxo-2-(pyridin-2-yl)ethyl)indolin-2-one], the “MTT, % protection” value is listed as 81.8%,.

`COc1cccc(C(=O)CC2(O)C(=O)N(CC(C)C)c3ccc(C)cc32)n1` (stereo not drawn) [Example 29, 3-hydroxy-1-isobutyl-3-(2-(6-methoxypyridin-2-yl)-2-oxoethyl)-5-methylindolin-2-one]: the “MTT, % protection” value is 98.9%,.

For `CCCN1C(=O)C(Cc2ccc(OC)cc2O)(OC(=O)c2ccccc2)c2ccccc21` (stereo not drawn) [Example 52, 3-(2-hydroxy-4-methoxybenzyl)-2-oxo-1-propylindolin-3-yl benzoate], the “MTT, % protection” value was 24%,.

With `CC(C)CN1C(=O)C(O)(CC(=O)c2ccccn2)c2cc(Cl)ccc21` (stereo not drawn) [Example 32, 5-chloro-3-hydroxy-1-isobutyl-3-(2-oxo-2-(pyridin-2-yl)ethyl)indolin-2-one], the “MTT, % protection” value is on record as 102%,.

`CC(C)CN1C(=O)C(O)(CC(=O)c2ccccn2)c2ccccc21` (stereo not drawn) [Example 16, 3-hydroxy-1-isobutyl-3-(2-oxo-2-(pyridin-2-yl)ethyl)indolin-2-one]: the “MTT, % protection” value is 78.7%,.

For the molecule `COc1cccc(C(=O)CC2(O)C(=O)N(CCN3CCCCC3)c3ccc(Cl)cc32)n1` (stereo not drawn) [Example 18, 5-chloro-3-hydroxy-3-(2-(6-methoxypyridin-2-yl)-2-oxoethyl)-1-(2-(piperidin-1-yl)ethyl)indolin-2-one], the “MTT, % protection” value is reported as 68.8%,.

With `CCCN1C(=O)C(O)(Cc2cn(C(=O)c3ccccc3)c3ccccc23)c2cc(C)ccc21` (stereo not drawn) [Example 64, 3-((1-benzoyl-1H-indol-3-yl)methyl)-3-hydroxy-5-methyl-1-propylindolin-2-one], the “MTT, % protection” value was 51.5%,.

For `CC(C)CN1C(=O)C(O)(CC(=O)c2c[nH]c3ccccc23)c2ccccc21` (stereo not drawn) [Example 20, 3-(2-(1H-indol-3-yl)-2-oxoethyl)-3-hydroxy-1-isobutylindolin-2-one], the “MTT, % protection” value is listed as 59.5%,.

For `CCN1C(=O)C(Cc2cc(OC)c(OC)c(OC)c2)(OC(=O)c2ccccc2)c2cc(C)ccc21` (stereo not drawn) [Example 33, 1-ethyl-5-methyl-2-oxo-3-(3,4,5-trimethoxybenzyl)indolin-3-yl benzoate], the “MTT, % protection” value was 50%,.

For `CC(C)CCN1C(=O)C(O)(CC(=O)c2c[nH]c3ccccc23)c2ccccc21` (stereo not drawn) [Example 21, 3-(2-(1H-indol-3-yl)-2-oxoethyl)-3-hydroxy-1-isopentylindolin-2-one], the “MTT, % protection” value was 82.9%,.

`COc1cc(CC2(OC(=O)c3ccccc3)C(=O)N(CC(C)C)c3ccc(C)cc32)cc(OC)c1OC` (stereo not drawn) [Example 36, 1-isobutyl-5-methyl-2-oxo-3-(3,4,5-trimethoxybenzyl)indolin-3-yl benzoate]: the “MTT, % protection” value was 86.8%,.

In the case of `Cc1ccc2c(c1)C(O)(CC(=O)c1c[nH]c3ccccc13)C(=O)N2CCC(C)C` (stereo not drawn) [Example 15, 3-(2-(1H-indol-3-yl)-2-oxoethyl)-3-hydroxy-1-isopentyl-5-methylindolin-2-one], the “MTT, % protection” value is given as 108.5%,.

`C#Cc1cccc(C(=O)CC2(O)C(=O)N(CCC)c3ccc(Cl)cc32)n1` (stereo not drawn) [Example 14, 5-chloro-3-(2-(6-ethynylpyridine-2-yl)-2-oxoethyl)-3-hydroxy-1-propylindolin-2-one]: the “MTT, % protection” value is reported as 69.6%,.

The same experiment, now with this note: compound 1 μM; 1 μM A23187, 24 h.
For the molecule `COc1ccc(CC2(OC(=O)c3ccccc3)C(=O)N(CCC(C)C)c3ccc(C)cc32)cc1OC` (stereo not drawn) [Example 46, 3-(3,4-dimethoxybenzyl)-1-isopentyl-5-methyl-2-oxoindolin-3-yl benzoate], the “MTT, % protection” value is given as 82%,.

Regarding `COc1ccc(CC2(O)C(=O)N(CCc3ccccc3)c3ccc(C)cc32)nc1` (stereo not drawn) [Example 11, 3-hydroxy-3-((5-methoxypyridin-2-yl)methyl)-5-methyl-1-phenethylindolin-2-one], the “MTT, % protection” value is recorded as 35.7%,.

On to `Cc1ccc2c(c1)C(O)(Cc1ncccc1Br)C(=O)N2CCC(C)C` (stereo not drawn) [Example 1, 3-((3-bromopyridin-2-yl)methyl)-3-hydroxy-1-isopentyl-5-methylindolin-2-one], for which the “MTT, % protection” value was 12%,.

For the molecule `Cc1ccc2c(c1)C(O)(CC(=O)c1c[nH]c3ccccc13)C(=O)N2CCCN=[N+]=[N-]` (stereo not drawn) [Example 27, 3-(2-(1H-indol-3-yl)-2-oxoethyl)-1-(3-azidopropyl)-3-hydroxy-5-methylindolin-2-one], the “MTT, % protection” value is on record as 66%,.

Consider `CCN1C(=O)C(O)(Cc2ncccc2OC)c2cc(Cl)ccc21` (stereo not drawn) [Example 7, 5-chloro-1-ethyl-3-hydroxy-3-((3-methoxypyridin-2-yl)methyl)indolin-2-one], for which the “MTT, % protection” value is 43.8%,.

Another experiment relates to 661W or C6 cells. The experiment is described as follows: XF FCCP-uncoupled oxygen consumption rate assay (IBMX challenge). In kind it is cell-based. The settings on record: IBMX treatment alone, 600 μM, 24 h. As to the method: The XF FCCP-uncoupled oxygen consumption rate assay assesses mitochondrial capacity by measuring cellular respiration. It was shown that the maximum FCCP-uncoupled oxygen consumption rate (OCR) was a good estimate of maximal mitochondrial capacity (Beeson 2010) and that IBMX treatment of 661W or C6 cells for 24 h caused a loss in maximal uncoupled OCR (Perron 2013). Thus, cells were pretreated with the exemplified compounds for 1 h, added 600 μM IBMX and then measured the uncoupled rate after 24 h. In brief, the OCR measurements were performed using a Seahorse Bioscience XF instrument (Seahorse Bioscience, Billerica, Md.), as previously published (Perron 2013). O2 leakage through the plastic sides and bottom of the plate was accounted for using the AKOS algorithm in the XF software package. Cells were plated on 96- or 24-well custom plates designed for use in the XF and grown to confluency in DMEM+5% FBS (48 h). The medium was then replaced with DMEM+1% FBS for 24 h, along with any treatments.
For the molecule `CC(C)Cn1c(=O)n(C)c(=O)c2[nH]cnc21` [IBMX, reference compound], the “decrease in the uncoupled rate (OCR)” value is on record as around 50%.

These data come from patent US9079853B2, “Isatin compounds, compositions and methods for treatment of degenerative diseases and disorders” (MUSC FOUNDATION FOR RESEARCH DEVELOPMENT, priority 2013, dated 2015).
